We go through two molecules from patent publication US10420815B2, “Combinational therapy for synergistic inhibition of gram-positive and gram-negative bacteria” (priority 2015, dated 2019).

“Also recorded” adds a separate entry of the source. Bridge positions count the residues as written; N and C are the ends. Square brackets hold non-standard residues; d marks the D form. Peptide text beside a SMILES is read from it. * marks the point of attachment. Ileψ(thiazoline)Cys = CC[C@H](C)[C@H](N)C1=N[C@H](C(=O)*)CS1; dOrn = NCCC[C@@H](N)C(=O)O Bounds are passed on as bounds.

For assay [1], the system named is MRSA (ATCC 33593). As to the kind of experiment: microbe, parasite or virus in culture. The class given is cell-based, Staphylococcus aureus. The settings on record: MRSA; bacitracin alone. From the text: (§1) MRSA (ATCC 33593), MSSA (ATCC 29213), and MRSA USA300 (BAA-1680) strains were purchased from the American Type Culture Collection (ATCC; Manassas, Va.). Eight clinical isolates of MRSA were obtained from the Culture Collection of Antimicrobial Resistant Microbes, Korea National Research Resource Center (KNRRC). Salmonella enterica Typhimurium LT2 was purchased from ATCC, and Escherichia coli O157:H7 is a kind gift from Dr. Sangryeol Ryu (Seoul National University, South Korea). All S. aureus strains were maintained in Trypticase Soy (TS) medium, and E. coli O157:H7 and Salmonella were routinely grown aerobically on Luria-Bertani (LB) media at 37° C. For measuring growth kinetics, an overnight culture of MRSA in Mueller-Hinton (MH) broth was diluted 100-fold in fresh MH broth and cultured until early exponential phase. The culture (200 μl) was transferred to each well of a sterile 96-well plate and incubated at 37° C. with bacitracin alone, alkyl gallate alone, and combination of bacitracin/alkyl gallates at various concentrations. The optical density at 600 nm (OD600) was measured every hour with FLUOstar® Omega (BMG Labtech, Germany).
(§2) Broth micro dilution assays were performed to determine the minimum inhibitory concentrations (MIC) accordance to the M7-A7 protocol of the Clinical and Laboratory Standards Institute (CLSI) guidelines^28. The susceptibility test was carried out with an initial bacterial inoculum of 1.5×10^5 CFU ml^−1. Alkyl gallates and bacitracin were serially diluted in a polystyrene 96 well plate and the plate was incubated at 37° C. for 24 h. Minimum bactericidal concentration (MBC) was determined by spotting 10 μl of cultures from MIC tests onto MH agar and incubated aerobically at 37° C.
(§3) MICs were determined with MRSA and methicillin-sensitive S. aureus (MSSA) using a broth dilution method as described above.
(§4) MRSA and MSSA were cultured overnight with antioxidants (0.5 μg/ml) and bacitracin at various concentrations and 10 μL of the culture was spotted on MH agar plates and incubated aerobically at 37° C. to observe the bacterial viability. The results in FIGS. 9A, 9B, 9C and 9D (photographs of plates) show the Minimal Bactericidal Concentrations (MBCs) for indicated antioxidants. Bacitracin killed MRSA and MSSA at concentrations greater than or equal to 2 μg/mi.

Assay [2] deals with MRSA (normal MRSA strain, not USA300). As to the kind of experiment: MRSA growth (optical density) with bacitracin and phenolic antioxidants. It is filed as cell-based, Staphylococcus aureus. The settings on record: bacitracin 0.0019 μg/mL to 1 μg/mL; FIG. 7B.
From the text: as §1
MRSA were grown with bacitracin (0.002 μg/mL) with antioxidant (as shown) at 0.5 μg/mL.
FIG. 7A is growth with no added bacitracin or lauryl gallate.
The optical density of MRSA was measured after 18 h culture with bacitracin (0.002 μg/ml) and antioxidants (as indicated at 0.5 μg/ml). Also measured were controls with no additions, with bacitracin alone and with antioxidant alone. FIGS. 8A, 8B, 8C and 8D are graphs illustrating the results.

Assay [3] has as its system MSSA (ATCC 29213). The experiment in a line: MIC (broth dilution) and MBC (spotting) of phenolic antioxidants and bacitracin. The settings on record: bacitracin alone. The class given is cell-based, Staphylococcus aureus.
From the text: as §1, §2, §3, §4
(In broth dilution the organism is exposed to a series of concentrations in liquid medium.)

The test system of assay [4] is MRSA 3823. As to the kind of experiment: microbe, parasite or virus in culture. It is filed as cell-based, Staphylococcus aureus.
From the text: as §1, §2

Assay [5] deals with MRSA 3865. As to the kind of experiment: microbe, parasite or virus in culture. The class given is cell-based, Staphylococcus aureus.
From the text: as §1, §2

The subject of assay [6] is MRSA 3903. As to the kind of experiment: microbe, parasite or virus in culture. The class given is cell-based, Staphylococcus aureus.
From the text: as §1, §2

The subject of assay [7] is MRSA 3799. As to the kind of experiment: microbe, parasite or virus in culture. The class given is cell-based, Staphylococcus aureus.
From the text: as §1, §2

Assay [8] has as its system MRSA 3876. The experiment in a line: microbe, parasite or virus in culture. The class given is cell-based, Staphylococcus aureus.
From the text: as §1, §2

Assay [9] relates to MRSA 3795. As to the kind of experiment: microbe, parasite or virus in culture. It is filed as cell-based, Staphylococcus aureus.
From the text: as §1, §2

Assay [10] relates to MRSA 3A585. The experiment in a line: microbe, parasite or virus in culture. The class given is cell-based, Staphylococcus aureus.
From the text: as §1, §2

Assay [11] relates to MRSA 3095. As to the kind of experiment: microbe, parasite or virus in culture. The class given is cell-based, Staphylococcus aureus.
From the text: as §1, §2

The test system of assay [12] is MRSA USA300 (BAA-1680). As to the kind of experiment: Growth kinetics (OD600) with bacitracin, alkyl gallates and combinations. It is filed as cell-based, Staphylococcus aureus.
From the text: as §1

Assay [13] deals with USA300. The experiment in a line: Bacterial membrane permeability (propidium iodide fluorescence). It is filed as cell-based, Staphylococcus aureus. The note with it: for membrane permeability: agent alone, sub-MIC levels, EDTA 1 mM. How it is done:
Membrane permeability was determined by measuring fluorescence after exposure of USA300 to propidium iodide as described previously^29. Briefly, USA300 was grown in MH broth to the exponential phase and then diluted to OD600≈0.25. Propidium iodide was mixed with bacteria to a final concentration of 10 μM. […] Fluorescence was monitored at excitation and emission wavelengths of 585 nm and 620 nm, respectively, for 1 h using FLUOstar Omega® (BMG Labtech, Germany). The membrane permeability was calculated by subtracting fluorescence intensity of controls without treatment with phenolic compounds from that of treated samples. EDTA (1 mM) was used as a positive control.

In assay [14] the test system is MRSA USA300 (BAA-1680). The experiment in a line: microbe, parasite or virus in culture. It is filed as cell-based, Staphylococcus aureus. Set-up: MBC of bacitracin in combination with OG / fold reduction in bacitracin MBC: dose or concentration left out as unconfirmed.
From the text: as §1, §2

The test system of assay [15] is Escherichia coli O157:H7. As to the kind of experiment: microbe, parasite or virus in culture. It is filed as cell-based.
From the text: as §1, §2
(§5) MIC and MBC were measured as described above. MIC and MBC data are shown in Table 5 for both the Salmonella and the E. coli strain tested. The tested strains were highly resistant to bacitracin.

The subject of assay [16] is Salmonella enterica Typhimurium LT2. As to the kind of experiment: MIC and MBC, alone and bacitracin/alkyl gallate combinations. It is filed as cell-based.
From the text: as §1, §2, §5

The test system of assay [17] is human clinical isolates of MRSA with multidrug- and hyper-resistance. The experiment in a line: Bactericidal activity of OG plus bacitracin against clinical isolates. It is filed as cell-based, Staphylococcus aureus.
From the text: as §1, with “The culture (200 μl) was transferred to each well of a sterile 96-well plate and incubated at 37° C. with bacitracin alone, alkyl gallate alone, and combination of bacitracin/alkyl gallates at various concentrations.” left out
Broth micro dilution assays were performed to determine the minimum inhibitory concentrations (MIC) accordance to the M7-A7 protocol of the Clinical and Laboratory Standards Institute (CLSI) guidelines^28. […] Minimum bactericidal concentration (MBC) was determined by spotting 10 μl of cultures from MIC tests onto MH agar and incubated aerobically at 37° C. […]

The mark [18] stands for this setting: Salmonella enterica, S. Typhimurium, agent alone.

As to `CC[C@H](C)[C@H](N)C1=N[C@H](C(=O)N[C@@H](CC(C)C)C(=O)N[C@H](CCC(=O)O)C(=O)N[C@H](C(=O)N[C@H]2CCCCNC(=O)[C@H](CC(N)=O)NC(=O)[C@@H](CC(=O)O)NC(=O)[C@H](Cc3cnc[nH]3)NC(=O)[C@@H](Cc3ccccc3)NC(=O)[C@H]([C@@H](C)CC)NC(=O)[C@@H](CCCN)NC2=O)[C@@H](C)CC)CS1` [Bacitracin, reference compound] ({Ileψ(thiazoline)Cys}-L[dE]IK[dOrn]I[dF]H[dD]N; lactam 4-C), the “bacitracin MIC for MRSA” value in [1] came to 2 µg/mL. Moreover, the “concentration of bacitracin alone that killed (MBC)” value in assay [1] and in assay [3] was “greater than or equal to 2 μg/mi” in each case. The “MRSA growth inhibition by bacitracin alone” value in assay [2] is on record as “did not inhibit MRSA”. For the same molecule, the MIC in assay [4] (MRSA 3823 (human/nose)) was 64 µg/mL; in assay [5] (MRSA 3865 (human/skin)), 128 µg/mL; in [6] (MRSA 3903 (human/skin)) it was 32 µg/mL; in assay [7] (MRSA 3799 (human/nose)), 128 µg/mL; in assay [8] (MRSA 3876 (human/skin)), 128 µg/mL; in assay [9] (MRSA 3795 (human/nose)) it was 8 µg/mL. Moreover, the MIC in assay [10] (MRSA 3A585 (human/blood)) was 128 µg/mL; in assay [11] (MRSA 3095 (human/skin)), 128 µg/mL; in assay [14] (agent alone), 1024 µg/mL; in assay [14] (bacitracin alone, in units) it was 100 U; in assay [15] (E. coli O157:H7, agent alone), more than 1024 µg/mL. Further, in assay [12] (up to 100 U bacitracin, without alkyl gallates), the “growth inhibition by bacitracin only” value was “did not inhibit USA300”. Moreover, the membrane permeability entry in [13] is “did not affect membrane permeability”. The MBC in [14] (agent alone) is 2048 µg/mL; in assay [14] (bacitracin alone, in units), 200 U; in assay [15] (E. coli O157:H7, agent alone), more than 1024 µg/mL.
Turning to `CCCCCCCCOC(=O)c1cc(O)c(O)c(O)c1` [Octyl gallate (OG), octyl gallate], the MIC in [4] (Staphylococcus aureus, MRSA) is 16 µg/mL; in assay [5] (Staphylococcus aureus, MRSA), 16 µg/mL; in assay [6] (Staphylococcus aureus, MRSA) it was 16 µg/mL; in [7] (Staphylococcus aureus, MRSA), 16 µg/mL; in assay [8] (Staphylococcus aureus, MRSA), 16 µg/mL; in assay [9] (Staphylococcus aureus, MRSA) it was 16 µg/mL. The MIC in assay [10] (Staphylococcus aureus, MRSA) came out at 16 µg/mL; in assay [11] (Staphylococcus aureus, MRSA), 16 µg/mL; in assay [16] (setting [18]), 256 µg/mL; in [14] (agent alone), 32 µg/mL; in assay [15] (Escherichia coli) it was 256 µg/mL. The “MBC of bacitracin with OG” value was 10^−2 U in assay [6] (MRSA 3903, 5 μg ml^−1 OG) and 10^−2 U in [7] (MRSA 3799, 5 μg ml^−1 OG). The “growth inhibition by bacitracin in combination with alkyl gallate” value in assay [12] (bacitracin 0.001 U to 100 U) is recorded as “completely inhibited the growth of USA300”. In addition, in [13] (OG plus bacitracin), the “membrane permeability, OG in the presence of bacitracin” value is listed as “more significantly increased membrane permeability than OG treatment without bacitracin; also recorded: significantly altered membrane permeability”. In addition, the membrane permeability result in assay [13] is “permeabilized the membrane in a concentration-dependent manner; also recorded: increased the membrane permeability”. Besides, the MBC in [16] (setting [18]) is 512 µg/mL; in [14] (agent alone), 64 µg/mL; in [15] (Escherichia coli), 512 µg/mL. Further, the “fold change in bacitracin MBC” value in assay [16] (Salmonella, 5 μg ml^−1 OG) is reported as > 1,000,000 fold; in assay [15] (E. coli O157:H7, 5 μg ml^−1 OG) it was > 1,000,000 fold. In [17] (FIG. 3), the “killing of clinical MRSA isolates by OG plus bacitracin” value is on record as “successfully killed all the tested clinical MRSA isolates; also recorded: effectively killed clinical MRSA isolates”. The “bacitracin level at which most strains were killed with OG” value in assay [17] (most clinical MRSA strains, 5 μg ml^−1 OG) is 10^−3 U. In addition, in assay [14] (5 μg ml^−1 alkyl gallate), the “MBC of bacitracin in combination with alkyl gallate” value is on record as 10^−3 U. Moreover, in [14] (5 μg ml^−1 alkyl gallate, versus bacitracin MBC 200 U), the “fold decrease in bacitracin MBC” value is on record as 200,000 fold. For the same molecule, the “bactericidal activity in combination with bacitracin” value in assay [14] (FIG. 2) is given as “Most significant bactericidal activity”. In addition, the “MBC of bacitracin in combination with OG” value in assay [14] (OG) is recorded as 10^−4 U. Also, the “fold reduction in bacitracin MBC” value in [14] (OG) was 2,000,000 fold.
